The results in this text go back to patent publication US20250320458A1, “CARDIOMYOCYTE SUBTYPES AND METHODS OF MAKING AND USING” (University Health Network, priority 2021, published 2025).

What all share (assay type): cell-based, human
For test [1], the system named is day 5 aSHF cells. In words: Retinol treatment of day 5 aSHF cells, RT-qPCR of RA-responsive genes. The settings on record: ROH for 24 hours vs DMSO, RT-qPCR day 6 (FIG. 4J). On the procedure: At day 1, the EBs were transferred to mesoderm induction media consisting of base media, 5 ng/mL rhbFGF (R&D), and various concentration of rhBMP4 (R&D) and rhActivinA (R&D) as described in the results section. At day 3, the EBs were transferred to the media consisting of base media, 2 μM Wnt inhibitor IWP2 (TOCRIS) and 10 ng/ml rhVEGF (R&D). From day 5 to day 12, the EBs were transferred to base media with 5 ng/mL rhVEGF. From day 12 to day 20, the EBs were transferred to base media and cultured in a normoxic environment (5% CO2, 20% O2). For pSHF lineage differentiation, the day 4 sorted pSHF cells were treated with 2 μM Retinol (Sigma) from day 4 to day 8. […]
RNA extraction was performed using the RNAqueous-micro Kit (Invitrogen). […] QRT-PCR was performed on an EP Real-Plex MasterCycler (Eppendorf) using QuantiFast SYBR Green PCR kit (QIAGEN). The copy number of each gene was determined based on a standard curve plotted with human genome DNA with known copy number. […]
The pSHF lineage expressed ALDH1A2 and RDH10, from the day 3 mesoderm stage onward, whereas expression of these genes was not detected until day 4 of differentiation in the aSHF lineage (FIG. 4G). These patterns correlate well with ALDH activity, which was detected in more than 90% of the days 4 and 5 pSHF cells. […] ALDH was not detected in the day 5 FHF population. […]

Test [2] has as its system day 4 pSHF cells (ALDH CXCR4−). The experiment in a line: Retinol treatment of isolated day 4 pSHF cells, RT-qPCR of progenitor markers. As to conditions: retinol 2 μM vs DMSO, 24 hours. On the procedure:
At day 1, the EBs were transferred to mesoderm induction media consisting of base media, 5 ng/mL rhbFGF (R&D), and various concentration of rhBMP4 (R&D) and rhActivinA (R&D) as described in the results section. At day 3, the EBs were transferred to the media consisting of base media, 2 μM Wnt inhibitor IWP2 (TOCRIS) and 10 ng/ml rhVEGF (R&D). From day 5 to day 12, the EBs were transferred to base media with 5 ng/mL rhVEGF. From day 12 to day 20, the EBs were transferred to base media and cultured in a normoxic environment (5% CO2, 20% O2). For pSHF lineage differentiation, the day 4 sorted pSHF cells were treated with 2 μM Retinol (Sigma) from day 4 to day 8. Similarly, the sorted aSHF cells were treated with 2 μM Retinol and 10 ng/mL rhBMP4 from day 5 to day 8 of differentiation.
RNA extraction was performed using the RNAqueous-micro Kit (Invitrogen). Purified RNA was treated with RNase-free DNase (Invitrogen), and then reverse transcribed into cDNA using oligo (dT) primers and random hexamers and iscript Reverse Transcriptase (ThermoFisher). QRT-PCR was performed on an EP Real-Plex MasterCycler (Eppendorf) using QuantiFast SYBR Green PCR kit (QIAGEN). The copy number of each gene was determined based on a standard curve plotted with human genome DNA with known copy number. The relative expression levels of genes were obtained by normalizing their copy number to that of TBP. […]

In test [3] the test system is aSHF cells. The experiment in a line: Extended BMP agonist/antagonist treatment of aSHF cells, day 20 RT-qPCR. The settings on record: aSHF cells treated with LDN. The procedure: (§1) RNA extraction was performed using the RNAqueous-micro Kit (Invitrogen). Purified RNA was treated with RNase-free DNase (Invitrogen), and then reverse transcribed into cDNA using oligo (dT) primers and random hexamers and iscript Reverse Transcriptase (ThermoFisher). QRT-PCR was performed on an EP Real-Plex MasterCycler (Eppendorf) using QuantiFast SYBR Green PCR kit (QIAGEN). The copy number of each gene was determined based on a standard curve plotted with human genome DNA with known copy number. The relative expression levels of genes were obtained by normalizing their copy number to that of TBP.
The above observation that the aSHF progenitors express genes involved in Bmp signaling is consistent with the known role of this pathway in the development of right ventricular cardiomyocytes from aSHF progenitors in the mouse. […] The notable exception is the genes for the ligands BMP2 and BMP4, which are also highly expressed in the FHF lineage (FIG. 5B). To determine if BMP plays a role in the differentiation of the aSHF progenitors to derivative lineages, the day 5 cells were treated with either a pathway agonist (10 ng/mL BMP4) or antagonist (0.1 μM LDN) and then the population was analyzed 24 hours after the treatments. […]

Test [4] has as its system aSHF progenitors. In words: BMP pathway agonist/antagonist treatment of day 5 aSHF progenitors, RT-qPCR 24 hours after treatment. The settings on record: for expression of genes indicative of aSHF (FGF8 and ISL1), pSHF (HOXB1) and FHF (HAND1) fates in the aSHF population: 10 ng/mL BMP4 or 0.1 μM LDN, ROH added, 24 hours after treatment (FIG. 5C). The procedure:
as §1
(§2) The above observation that the aSHF progenitors express genes involved in Bmp signaling is consistent with the known role of this pathway in the development of right ventricular cardiomyocytes from aSHF progenitors in the mouse. […] The notable exception is the genes for the ligands BMP2 and BMP4, which are also highly expressed in the FHF lineage (FIG. 5B). To determine if BMP plays a role in the differentiation of the aSHF progenitors to derivative lineages, the day 5 cells were treated with either a pathway agonist (10 ng/mL BMP4) or antagonist (0.1 μM LDN) and then the population was analyzed 24 hours after the treatments. FHF and pSHF progenitors were included in the analyses, and ROH was added to the cultures of pSHF and aSHF progenitor, given that both populations display ALDH activity. […] Inhibition of the pathway did, however, lead to upregulation of genes associated with pharyngeal progenitors (FOXC2 and SIX1) (FIG. 5D) and downregulation of those indicative of cardiomyocyte development (UNC45B and GATA4) (FIG. 5E). To further investigate the consequences of BMP manipulation, the agonist/antagonist treatment was extended for an additional 48 hours and then the treated cells were cultured for 12 days to promote cardiomyocyte development. FHF and pSHF progenitors also were cultured for 20 days without manipulation of BMP signaling. All 3 progenitor populations generated TNNT2^+/SIRPa^+ cardiomyocytes by day 20 of differentiation (FIGS. 5F and 5G). In addition to the cardiomyocytes, the aSHF-derived population also contained PDGFR-beta^+ mesenchymal cells (FIG. 5F).

The test system of test [5] is aSHF progenitors. The experiment in a line: Extended BMP agonist/antagonist treatment of aSHF progenitors, day 20 flow cytometry and cell numbers. As to conditions: treatment extended additional 48 hours, then cultured 12 days; day 20 (FIGS. 5F and 5H). The procedure:
Cells of early stages (day 3 to day 6) were dissociated with TrypLE for 3-5 minutes at room temperature to single cells, which were then filtered and transferred to IMDM media. Day 20 EBs were dissociated with 0.5 mg/ml collagenase type 2 (Worthington) in HANKs buffer for 1.5 hours at 37° C. The filtered day 20 cells were then transferred to FACS buffer consisting of PBS with 5% fetal calf serum (Wisent) and 0.02% sodium azide. The following antibodies were used for staining samples obtained from various stages of differentiation: anti-PDGFRa-PE (R&D Systems, 1:20), anti-CD235a/b-APC (BD PharMingen, 1:200), anti-SIRPa-PeCy7 (Biolegend, 1:2000), anti-CXCR4 (Biolegend, 1:100), anti-CDId-PE (Biolegend, 1:100), anti-CD49c-PE (ThermoFisher, 1:100), anti-cardiac isoform of CTNT (ThermoFisher Scientific, 1:2000), or anti-myosin light chain 2 (Abcam, 1:1000). For unconjugated primary antibodies, the following secondary antibodies were used for detection: goat anti-mouse IgG-APC (BD Pharmigen, 1:250), or donkey anti-rabbit IgG-PE (Jackson ImmunoResearch, 1:250). Detailed antibody information is described in Table 2.
To stain live cells with cell-surface protein, dissociated single cells were stained for 15 minutes at room temperature in FACS buffer and washed twice before they were subject to further analyses. For intracellular staining, cells were fixed for 15 min at 4° C. in PBS containing 4% PFA followed by permeabilization using 90% methanol for 15 min at 4° C. The permeabilized cells were washed with PBS containing 0.5% BSA (Sigma) twice and stained with unconjugated primary antibodies in FACS buffer for 18 hours at 4° C. Stained cells were washed with PBS with 0.5% BSA and stained with proper secondary antibodies in FACS buffer for 30 mins at 4° C. Following washing steps, stained cells were processed with the Fortessa (BD) and analyzed using FlowJo software (Tree Star). For cell sorting, stained cells were kept in StemPro-34 media and sorted using Influx (BD), FACSAriall (BD), MoFlo-XDP (BD) and FACSAria Fusion (BD). Data were analyzed using FlowJo software (Tree Star).
as §2, with “All 3 progenitor populations generated TNNT2^+/SIRPa^+ cardiomyocytes by day 20 of differentiation (FIGS. 5F and 5G). In addition to the cardiomyocytes, the aSHF-derived population also contained PDGFR-beta^+ mesenchymal cells (FIG. 5F).” left out

Regarding `CC1=C(/C=C/C(C)=C/C=C/C(C)=C/CO)C(C)(C)CCC1` [ROH, Retinol], in test [1], the “expression of the RA-responsive gene CYP26A1 and HOXB1” value is reported as “upregulation”. The “expression of the RA responsive gene CYP26A1 and the pSHF progenitor markers HOXA1 and HOXB1” value in test [2] (RT-qPCR (FIG. 3H)) is “upregulation”. For the same molecule, the “expression of aSHF progenitor markers FGF10, FOXC1 and FOXC2” value in test [2] (RT-qPCR (FIG. 3I)) was “downregulated”.
For the molecule `c1ccc2c(-c3cnn4cc(-c5ccc(N6CCNCC6)cc5)cnc34)ccnc2c1` [LDN, LDN 193189], in test [3], the “expression of the ventricular cardiomyocyte markers IRX4 and MY1.2” value was “decrease”; the “levels of PDGFRB” value is reported as “elevated”. Further, the “expression of genes indicative of aSHF (FGF8 and ISL1), pSHF (HOXB1) and FHF (HAND1) fates in the aSHF population” value in test [4] is “did not alter”. In addition, the “expression of genes associated with pharyngeal progenitors (FOXC2 and SIX1)” value in test [4] (0.1 μM LDN, 24 hours after treatment (FIG. 5D)) is reported as “upregulation”. Further, the “expression of genes indicative of cardiomyocyte development (UNC45B and GATA4)” value in test [4] (0.1 μM LDN, 24 hours after treatment (FIG. 5E)) is on record as “downregulation”. For the same molecule, in test [5], the “PDGFR-beta+ cells in the aSHF-derived population (number / size of fraction)” value is listed as “increased” and the “proportion of cardiomyocytes in the aSHF-derived population” value is on record as “reduced”.

B1: BMP4: Recombinant human BMP4 (R&D), BMP pathway agonist (protein, UniProt P12644 293-408, looked up)
Bone morphogenetic protein 4: SPKHHSQRARKKNKNCRRHSLYVDFSDVGWNDWIVAPPGYQAFYCHGDCPFPLADHLNSTNHAIVQTLVNSVNSSIPKACCVPTELSAISMLYLDEYDKVVLKNYQEMVVEGCGCR
B1: in test [4], the “expression of genes indicative of aSHF (FGF8 and ISL1), pSHF (HOXB1) and FHF (HAND1) fates in the aSHF population” value is recorded as “did not alter”. For the same molecule, in test [5], the “PDGFR-beta+ cells in the aSHF-derived population (number / size of fraction)” value is given as “reducing”, the “number of cardiomyocytes in the aSHF-derived population” value was “increased” and the “proportion of cardiomyocytes in the aSHF-derived population” value was “increased”.
